Here are results for 4 compounds from publication PMC12692861, “Biotin-Linked Ursolic Acid Conjugates as Selective Anticancer Agents and Target-Identification Tools for Cancer Therapy” (Molecules, 2025).

Assay [1] has as its system MCF-12A. As to the kind of experiment: MTT assay, non-tumorigenic breast epithelial cell line. The format is cell-based, human. To be noted: Homo sapiens, MCF-12A; MTT, 72 h, non-tumorigenic cells; read-out: IC50 (Mean ± SD), MCF-12A. As for the experimental part: (§1) The synthesized hybrid conjugates 5a–d were evaluated for their antiproliferative activity against the established human bladder cancer cell lines T24 and 5637. Test compounds were dissolved in ultrapure dimethyl sulfoxide (DMSO), diluted in cell culture media, added to cells cultured in 96-well cluster wells, and incubated for 72 h. The concentration of DMSO in culture media was maintained at < 0.05%. As previously reported, the fraction of viable cells in the culture wells was compared to that in cultures with 0.05% DMSO-only using a colorimetric assay, the Methyl Tetrazolium Bromide (MTT) reduction assay. We determined the selectivity index (SI) of the compounds 5a–d against tumor cells by comparing their cytotoxicity to that of a non-tumorigenic breast epithelial cell line, MCF-12A, as well as a non-tumorigenic, immortalized urothelial cell line, UROtsa (Table 1, and Figure 2).
(§2) The antiproliferative activities of various compounds examined in this report were measured using the MTT (3-[4,5-dimethylthiazol-2-yl]-2,5-diphenyl-tetrazolium bromide) reduction assay, as previously described. Briefly, cells were seeded at 2 × 10^3 cells per well in a 96-well plate and cultured overnight. The cells were then treated with different doses (5 µM, 10 µM, 15 µM, 20 µM, 25 µM, 30 µM, 35 µM, 40 µM in DMSO) for 72 h. Viability of the treated cultures was estimated by conversion of MTT to the insoluble formazan after 3h incubation at 37 °C and 5% CO2. The purple-colored formazan crystals were dissolved in DMSO, and absorbance was recorded at wavelengths 570/640 nm using the Bio-Rad Benchmark Plus Microplate Reader. The percent of viable cells was calculated ODtreated cells/ODcontrol cell wells × 100.

In assay [2] the test system is T24 cells. As to the kind of experiment: MTT antiproliferative assay. To be noted: for IC50: Homo sapiens, T-24, MTT, 72 h, read-out: IC50 (Mean ± SD), T24; for SI (selectivity index), T24: IC50 MCF-12A / IC50 T24. Format: cell-based, human. As for the experimental part: as §1, §2
The subject of assay [3] is 5637 cells. As to the kind of experiment: MTT antiproliferative assay. The format is cell-based, human. To be noted: for IC50: 72 h, MTT, read-out: IC50 (Mean ± SD), 5637. As for the experimental part:
as §1, §2

Assay [4] relates to human bladder cancer cell lines T24 and 5637. As to the kind of experiment: MTT antiproliferative activity, result in words. Format: cell-based. Conditions: 72 h. The procedure: as §1
The antiproliferative activities of various compounds examined in this report were measured using the MTT (3-[4,5-dimethylthiazol-2-yl]-2,5-diphenyl-tetrazolium bromide) reduction assay, as previously described. […] The purple-colored formazan crystals were dissolved in DMSO, and absorbance was recorded at wavelengths 570/640 nm using the Bio-Rad Benchmark Plus Microplate Reader. The percent of viable cells was calculated ODtreated cells/ODcontrol cell wells × 100.

Assay [5] relates to 5637 cells. As to the kind of experiment: Annexin V-FITC/PI apoptosis flow cytometry. Conditions: Homo sapiens, 24 h, read-out: Q3-3 (Q3, viable) cells. The format is cell-based. As for the experimental part: (§3) The potential of cells treated with UA or 5c to undergo dose-dependent apoptosis was explored using quantitative flow cytometric analysis, as shown in Figure 4. Utilizing a kit that detects quantitative binding of Annexin V to externalized phosphatidyl serine during the apoptosis cascade and permeability of Propidium iodide (PI) in cells undergoing cell death, we determined the cells at various stages of cell death following 24h incubation with UA and 5c in various bladder cancer cells.
(§4) We used a fluorescence-based Annexin V binding assay to determine the fraction of the cell population undergoing early and late apoptosis due to the cytotoxicity of the drugs. Cells plated in a 60 mm dish overnight at 0.3 × 10^6 cells/well were incubated with the selected drug at several doses for 24 h. Subsequently, treated cells were labeled with FITC-Annexin V using a kit (eBioscience™ Annexin V Apoptosis Detection Kits; Invitrogen # 88-8005-72, Thermo Fisher Scientific, Seoul, Korea) as per the manufacturer’s instructions. Intact cell suspension labeled with FITC-Annexin V and PI was run on the NovoCyte Quanteon flow cytometer, and data were acquired in list mode. Acquired data were analyzed using NovoExpress software (version 1.6.1). Cells treated with Staurosporine (0.2 µM) act as a positive control.

Assay [6] has as its system MB49 cells. As to the kind of experiment: Annexin V-FITC/PI apoptosis flow cytometry. The format is cell-based, murine. Conditions: Mus musculus, MB49, 24 h, read-out: Q4-3 (Q3, viable) cells. As for the experimental part: as §3, §4

Like-named read-outs stand apart in the source and are kept apart here.

In the case of `CC1CCC2(C(=O)OCCOC(=O)CCCCC3SCC4NC(=O)NC43)CCC3(C)C(=CCC4C5(C)CCC(O)C(C)(C)C5CCC43C)C2C1C` [Compound 5a, 2-((5-((3aS,4S,6aR)-2-Oxohexahydro-1H-thieno [3,4-d]imidazol-4-yl)pentanoyl)oxy) ethyl 3-hydroxy-urs-12-en-28-oate], the IC50 came out at 626 ± 34.7 µM in assay [1], 14.6 ± 4.97 µM in assay [2] and 39.3 ± 21.2 µM in assay [3] (Homo sapiens). Moreover, the “SI (selectivity index), T24” value in assay [2] is reported as 42.96. In addition, the “SI (selectivity index), 5637” value in assay [3] (IC50 MCF-12A / IC50 5637) came to 15.92.

In the case of `CC1CCC2(C(=O)OCCCOC(=O)CCCCC3SCC4NC(=O)NC43)CCC3(C)C(=CCC4C5(C)CCC(O)C(C)(C)C5CCC43C)C2C1C` [Compound 5b, 3-((5-((3aS,4S,6aR)-2-Oxohexahydro-1H-thieno [3,4-d]imidazol-4-yl)pentanoyl)oxy) propyl 3-hydroxy-urs-12-en-28-oate], the IC50 was 73.33 ± 0.12 µM in assay [1], 108 ± 24.4 µM in assay [2], at least 10000 µM in assay [3] (Homo sapiens) and above 10000 µM in assay [3]. Also, in assay [4], the “antiproliferative activity” value is listed as “ineffective”. In addition, the “SI (selectivity index), T24” value in assay [2] is reported as 0.68.

Regarding `CC1CCC2(C(=O)OCCCCCCOC(=O)CCCCC3SCC4NC(=O)NC43)CCC3(C)C(=CCC4C5(C)CCC(O)C(C)(C)C5CCC43C)C2C1C` [Compound 5d, 6-((5-((3aS,4S,6aR)-2-Oxohexahydro-1H-thieno [3,4-d]imidazol-4-yl)pentanoyl)oxy) hexyl 3-hydroxy-urs-12-en-28-oate], the IC50 was 3820 µM in assay [1], 582 µM in assay [2] and above 10000 µM in assay [3] (Homo sapiens). For the same compound, the “antiproliferative activity” value in assay [4] was “largely inactive”. In assay [2], the “SI (selectivity index), T24” value was 6.57.

Consider `CN[C@@H]1C[C@H]2O[C@@](C)([C@@H]1OC)n1c3ccccc3c3c4c(c5c6ccccc6n2c5c31)C(=O)NC4` [Stauro., Staurosporine], for which the viability at 0.2 µM in assay [5] is 25.3%; in assay [6], 12.3%.
